In patent publication US20220281886A1, “NATRIURETIC PEPTIDE RECEPTOR A AGONISTS USEFUL FOR THE TREATMENT OF CARDIOMETABOLIC DISEASES, KIDNEY DISEASE AND DIABETES” (Merck Sharp & Dohme Corp., priority 2019, published 2022):

Target: T1, hNPRA (Homo sapiens, UniProt P16066)
T1 construct: expressed in transfected cells
T1 sequence (P16066 33-1061): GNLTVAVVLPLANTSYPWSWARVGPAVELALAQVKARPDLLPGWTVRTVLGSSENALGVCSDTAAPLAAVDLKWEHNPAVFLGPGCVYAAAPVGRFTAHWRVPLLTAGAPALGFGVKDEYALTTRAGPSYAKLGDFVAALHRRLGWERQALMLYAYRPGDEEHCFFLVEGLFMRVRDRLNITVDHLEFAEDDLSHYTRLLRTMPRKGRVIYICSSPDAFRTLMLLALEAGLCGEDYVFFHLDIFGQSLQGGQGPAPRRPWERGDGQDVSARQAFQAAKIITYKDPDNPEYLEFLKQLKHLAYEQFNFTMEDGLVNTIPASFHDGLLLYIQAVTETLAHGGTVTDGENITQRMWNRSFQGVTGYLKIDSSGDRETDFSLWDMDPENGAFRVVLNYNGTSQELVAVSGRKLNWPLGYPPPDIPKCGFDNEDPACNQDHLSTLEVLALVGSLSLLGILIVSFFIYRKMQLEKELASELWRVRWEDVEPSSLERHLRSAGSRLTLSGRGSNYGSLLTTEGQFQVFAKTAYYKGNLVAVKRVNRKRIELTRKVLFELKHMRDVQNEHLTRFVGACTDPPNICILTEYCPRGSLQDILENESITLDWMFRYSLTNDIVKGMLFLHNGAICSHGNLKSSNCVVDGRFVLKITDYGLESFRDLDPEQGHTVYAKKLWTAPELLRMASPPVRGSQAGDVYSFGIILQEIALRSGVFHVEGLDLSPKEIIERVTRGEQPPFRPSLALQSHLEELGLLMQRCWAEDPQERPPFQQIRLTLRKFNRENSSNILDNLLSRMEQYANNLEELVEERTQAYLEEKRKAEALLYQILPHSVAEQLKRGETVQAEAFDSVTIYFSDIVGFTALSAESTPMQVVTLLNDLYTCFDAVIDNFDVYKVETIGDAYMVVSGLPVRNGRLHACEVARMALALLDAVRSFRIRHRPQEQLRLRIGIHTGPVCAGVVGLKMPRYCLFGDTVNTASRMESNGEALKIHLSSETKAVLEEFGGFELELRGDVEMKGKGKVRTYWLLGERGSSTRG
Test: NPRA Functional Cell Assay (cGMP HTRF)
Assay type: cell-based
Conditions: Human NPRA HEK JumpIn stable cells; cGMP by HTRF after 1 hour at 37° C.; 10-point dose response
In short: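 HEK JumpIn cells stably expressing human, rat or dog NPRA incubated 1 hour at 37° C with compound (10-point titration) in Opti-MEM buffer with 100 uM IBMX and 100 uM RO20. cGMP measured by HTRF against an on-plate calibration curve; EC50 from 4-parameter fit, positive control 10 nM rat-ANP (rat) or 50 nM h-ANP (human, dog).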

Row | EC50 [nM] | SMILES
1 | 158 | CN1CC(NC(=O)c2cccc([C@@H](CCN3CCC[C@H]3CO)NC(=O)c3ccc4nc5c(cc4c3)C[C@@H](C3(C)CC3)CC5)c2)C1 [Example 21, (S)-N-((R)-3-((S)-2-(hydroxymethyl)pyrrolidin-1-yl)-1-(3-((1-methylazetidin-3-yl)carbamoyl)phenyl)propyl)-7-(1-methylcyclopropyl)-5,6,7,8-tetrahydroacridine-2-carboxamide]
2 | 278 | CN1CC(NC(=O)c2cccc([C@@H](CCN3CCC[C@H]3CO)NC(=O)c3ccc4nc5c(cc4c3)C[C@@H](C3(C(F)(F)F)CC3)CC5)c2)C1 [Example 22, (S)-N-((R)-3-((S)-2-(hydroxymethyl)pyrrolidin-1-yl)-1-(3-((1-methylazetidin-3-yl)carbamoyl)phenyl)propyl)-7-(1-(trifluoromethyl)cyclopropyl)-5,6,7,8-tetrahydroacridine-2-carboxamide]
3 | 405 | CN1CC(NC(=O)c2cccc([C@@H](CCN3CCC[C@H]3CO)NC(=O)c3ccc4nc5c(cc4c3)C[C@@H](C3(C(F)F)CC3)CC5)c2)C1 [Example 23]
4 | 237 | COC(=O)C1CCN(CC[C@@H](NC(=O)c2cc(F)c3nc4c(cc3c2)C[C@](F)(C(C)C)CC4)c2ccc(-c3cnc(O)c(F)c3)cc2)CC1 [Example 24, methyl 1-((R)-3-((S)-4,7-difluoro-7-isopropyl-5,6,7,8-tetrahydroacridine-2-carboxamido)-3-(4-(5-fluoro-6-hydroxypyridin-3-yl)phenyl)propyl)piperidine-4-carboxylate]
5 | 167 | CC(C)[C@]1(F)CCc2nc3c(F)cc(C(=O)N[C@H](CCN4CCC(C(=O)O)CC4)c4ccc(-c5cnc(O)c(F)c5)cc4)cc3cc2C1 [Example 25, 1-((R)-3-((S)-4,7-difluoro-7-isopropyl-5,6,7,8-tetrahydroacridine-2-carboxamido)-3-(4-(5-fluoro-6-hydroxypyridin-3-yl)phenyl)propyl)piperidine-4-carboxylic acid]
6 | 246 | CC(C)[C@]1(F)CCc2nc3c(F)cc(C(=O)N[C@H](CCN4CCC(O)CC4)c4ccc(NS(=O)(=O)N(C)C)nc4)cc3cc2C1 [Example 26, (S)-N-((R)-1-(6-((N,N-dimethylsulfamoyl)amino)pyridin-3-yl)-3-(4-hydroxypiperidin-1-yl)propyl)-4,7-difluoro-7-isopropyl-5,6,7,8-tetrahydroacridine-2-carboxamide]
7 | 2450 | CC(C)[C@]1(F)CCc2nc3c(F)cc(C(=O)N[C@H](CCN4CCC(O)CC4)c4cnc(NS(=O)(=O)N(C)C)c(F)c4)cc3cc2C1 [Example 27, (S)-N-((R)-1-(6-((N,N-dimethylsulfamoyl)amino)-5-fluoropyridin-3-yl)-3-(4-hydroxypiperidin-1-yl)propyl)-4,7-difluoro-7-isopropyl-5,6,7,8-tetrahydroacridine-2-carboxamide]
8 | 321 | CC(C)[C@]1(F)CCc2nc3c(F)cc(C(=O)N[C@H](CCN4CCC(O)CC4)c4ccc(N5CC(=O)NC5=O)nc4)cc3cc2C1 [Example 28]
9 | 275 | CC1C(=O)NC(=O)N1c1ccc([C@@H](CCN2CCC(O)CC2)NC(=O)c2cc(F)c3nc4c(cc3c2)C[C@](F)(C(C)C)CC4)cn1 (stereo partly drawn) [Example 29, (7S)-4,7-difluoro-N-((1R)-3-(4-hydroxypiperidin-1-yl)-1-(6-(5-methyl-2,4-dioxoimidazolidin-1-yl)pyridin-3-yl)propyl)-7-isopropyl-5,6,7,8-tetrahydroacridine-2-carboxamide]
10 | 217 | CC(C)[C@]1(F)CCc2nc3c(F)cc(C(=O)N[C@H](CCN4CCC(O)CC4)c4ccc(-c5cn[nH]c5)nc4)cc3cc2C1 [Example 32, (S)-N-((R)-1-(6-(1H-pyrazol-4-yl)pyridin-3-yl)-3-(4-hydroxypiperidin-1-yl)propyl)-4,7-difluoro-7-isopropyl-5,6,7,8-tetrahydroacridine-2-carboxamide]
11 | 871 | CC(C)[C@]1(F)CCc2nc3c(F)cc(C(=O)N[C@H](CCN4CCC(O)CC4)c4ccc(N5CC[C@@H](O)[C@H](F)C5)nc4)cc3cc2C1 [Example 33, (S)-4,7-difluoro-N-((R)-1-(6-((3R,4R)-3-fluoro-4-hydroxypiperidin-1-yl)pyridin-3-yl)-3-(4-hydroxypiperidin-1-yl)propyl)-7-isopropyl-5,6,7,8-tetrahydroacridine-2-carboxamide]
12 | 2840 | CC(C)[C@]1(F)CCc2nc3c(F)cc(C(=O)N[C@H](CCN4CCC(O)CC4)c4ccc(N5CC6CCC5CO6)nc4)cc3cc2C1 (stereo partly drawn) [Example 34, (7S)-N-((1R)-1-(6-(2-oxa-5-azabicyclo[2.2.2]octan-5-yl)pyridin-3-yl)-3-(4-hydroxypiperidin-1-yl)propyl)-4,7-difluoro-7-isopropyl-5,6,7,8-tetrahydroacridine-2-carboxamide]
